The results in this text go back to paper PMC11571108, “Targeting PfCLK3 with Covalent Inhibitors: A Novel Strategy for Malaria Treatment” (Journal of Medicinal Chemistry, 2024).

Read-outs that look alike come from different tables or passages of the source.

For test [1], the system named is asexual P. falciparum 3D7 parasites. As to the kind of experiment: Time of inhibition assays in 3D7 parasites. Type of test: cell-based. The settings on record: Plasmodium falciparum, read at 72 hpi. The procedure:
Synchronised parasites between 0.4 and 0.6% parasitemia at 4% hematocrit were plated in 384 well plates. To early ring stage plate (0−) rings, serially diluted drugs were added to the parasites in triplicate and incubated as plate 1. At 16 hpi, late ring stage parasites were exposed to the same drug concentrations previously diluted as in plate 1. This was repeated for 24 hpi plates. […] As described previously, the plates were thawed at RT for about an hour before they were SyBr green stained in lysis buffer.

The subject of test [2] is PfCLK3 kinase domain (334–699). Kind of test: Intact protein mass spectrometry, covalent adduct formation. The settings on record: for Covalent Adduct Formation (%): pH 7.4, 4 h incubation. Type of test: binding, Plasmodium falciparum. An excerpt: Covalent adduct formation was investigated by intact protein mass spectrometry.

As to `C[C@@H]1CC[C@H]2[C@@H](C)C(=O)O[C@@H]3O[C@@]4(C)CC[C@@H]1[C@]32OO4` [Artemisinin], the EC50 in test [1] (dosed at 16 hpi, read-out: pEC50 (3D7) 16 hpi (converted)) is 0.112 µM; in test [1] (dosed at 24 hpi, read-out: pEC50 (3D7) 24 hpi (converted)), 0.0955 µM; in test [1] (dosed at early-ring stage (0 h), read-out: pEC50 (3D7) 0-3 hpi (converted)), 0.0135 µM.

As for `C=CC(=O)N1CCN(Cc2ccc(OC)c(-c3cc4c(-c5ccc(C(=O)O)cc5)ccnc4[nH]3)c2)CC1` [Compound 2, 4-[2-(2-methoxy-5-{[4-(prop-2-enoyl)piperazin-1-yl]methyl}phenyl)-1H-pyrrolo[2,3-b]pyridin-4-yl]benzoic Acid], the “covalent adduct formation (observed or not)” value in test [2] (pH 7.4, 4 h) was “no covalent adduct formation was observed”; in test [2] (pH raised to 9), “adduct formation was observed”. In test [2], the “Covalent Adduct Formation (%)” value is listed as 0%.

In the case of `COc1ccc(CN2CCN(C(=O)/C=C/CN(C)C)CC2)cc1-c1cc2c(-c3ccc(C(=O)O)cc3)ccnc2[nH]1` [Compound 3, 4-{2-[5-({4-[(2E)-4-(dimethylamino)but-2-enoyl]piperazin-1-yl}methyl)-2-methoxyphenyl]-1H-pyrrolo[2,3-b]pyridin-4-yl}benzoic Acid], in test [2] (pH 7.4, 4 h), the “covalent adduct formation (observed or not)” value is reported as “no adduct formation”. Also, in test [2], the “Covalent Adduct Formation (%)” value is 0%.
